In patent US5039512A, “NMR imaging with paramagnetic polyvalent metal salts of poly-(acid-alkylene-amino)-alkanes” (Salutar, Inc., priority 1987, dated 1991):

Key:
[1] = Stability constant (binding ability) towards manganese; conditions: relative to the EDTA chelate
[2] = in vivo; cited from earlier work
[3] = Relaxivities (T1, T2) of protons in plasma exposed to the complexes; format: physicochemical
Description: (§1) c) Relaxitivities of protons present in water and plasma exposed to the complexes of (a) and (b) (at 10 mHz) (37° C.) in milliseconds:
(§2) c) Relaxivities of protons present in water and plasma exposed to (a) and (b) at 10 mHz (37 C) in milliseconds: […]

[4] = in vivo
[5] = in vivo; cited from earlier work; remark: listed apart in the source
[6] = Relaxivities (T1, T2) of protons in water exposed to the complexes; format: physicochemical; conditions: Table 5
Description: as §1, §2

[7] = Table 5, 1.56 × 10^-3 moles/liter
[8] = Table 5, 3.13 × 10^-3 moles/liter
[9] = Table 5, 6.25 × 10^-3 moles/liter

In the case of O=C(O)CN(CC(=O)O)[C@@H]1CCCC[C@H]1N(CC(=O)O)CC(=O)O (relative stereo) [DCTA, trans-N,N,N',N'-tetra-carboxymethyl-1,2-diaminocyclohexane], the “Stability constant (binding ability) towards manganese” value [1] is reported as “several thousand times better”.

For O=C([O-])CN(CCN(CC(=O)[O-])CC(=O)O)CCN(CC(=O)[O-])CC(=O)O.[Gd+3] [Gd DTPA, gadolinium chelate of diethylene-triamine-pentaacetic acid], the “Uptake by solid organs” value [2] is given as “virtually no uptake by any solid organ”, the T1 plasma ([3]; 9.77 × 10^-5 moles/liter) is given as 877 ms and the T1 plasma [3, 7] is given as 134 ms. For the same compound, the T2 plasma [3, 7] was 116 ms, the T1 plasma ([3]; Table 5, 1.95 × 10^-4 moles/liter) was 636 ms and the T1 plasma [3, 8] was 69 ms. It also gave a T2 plasma [3, 8] of 61 ms, a T1 plasma ([3]; Table 5, 3.91 × 10^-4 moles/liter) of 405 ms and a T1 plasma [3, 9] of 39 ms. For the same compound, the T2 plasma [3, 9] was 31 ms, the T1 plasma ([3]; Table 5, 7.81 × 10^-4 moles/liter) was 240 ms and the Organ distribution [4] was “does not substantially interact with the hepatobiliary system”. The “Post T1 fat” value [5] was 185 milliseconds, the “Post T1 kidneys” value [5] was 205 milliseconds and the “Post T1 liver” value [5] was 195 milliseconds. For the same compound, the “Post T1 muscle” value [5] was 335 milliseconds, the “Post T1 spleen” value [5] was 285 milliseconds and the T1 water ([6]; 1.56 × 10^-3 moles/liter) was 163 ms. It also gave a T2 water ([6]; 1.56 × 10^-3 moles/liter) of 155 ms, a T1 water ([6]; 1.95 × 10^-4 moles/liter) of 1015 ms and a T1 water ([6]; 3.13 × 10^-3 moles/liter) of 83 ms. For the same compound, the T2 water ([6]; 3.13 × 10^-3 moles/liter) was 76 ms, the T1 water ([6]; 3.91 × 10^-4 moles/liter) was 582 ms and the T1 water ([6]; 6.25 × 10^-3 moles/liter) was 40 ms. For the same compound, the T2 water ([6]; 6.25 × 10^-3 moles/liter) was 35 ms and the T1 water ([6]; 7.81 × 10^-4 moles/liter) was 309 ms.
